Consider one compound from patent publication US20090082337A1, “Compositions Comprising Quinolone and Methods for Treating or Controlling Infections” (priority 2007, published 2009).

≈ marks a conversion by molar mass, not a printed value.

Holding throughout (assay): In vitro anti-bacterial activity (MIC90), ophthalmologic clinical bacteria isolates
Holding throughout (type): cell-based

Assay [1] has as its system Moraxella species. Conditions: Gram-negative.
In assay [2] the test system is Pseudomonas aeruginosa. Particulars: Gram-negative.
Assay [3] concerns Haemophilus influenzae. Conditions: Gram-negative.
In assay [4] the test system is Staphylococcus aureus. Conditions: Gram-positive.
The test system of assay [5] is Coagulase-negative Staphylococcus. Conditions: Gram-positive.
In assay [6] the test system is Streptococcus pneumoniae. Conditions: Gram-positive.
The test system of assay [7] is Corynebacterium species. Particulars: Gram-positive. From the text:
As disclosed above, most of these bacteria strains are also relevant to infections of the ear and upper respiratory tract.

Assay [8] has as its system Propionibacterium acnes. Particulars: Cutibacterium acnes, Gram-positive.
Assay [9] relates to Ofloxacin-resistant Staphylococcus aureus. Conditions: antibiotic-resistant organisms.
Assay [10] relates to Gentamycin-resistant Staphylococcus aureus. Conditions: antibiotic-resistant organisms.
The test system of assay [11] is Gentamycin-resistant Pseudomonas aeruginosa. Conditions: antibiotic-resistant organisms.
In assay [12] the test system is Penicillin-resistant Streptococcus pneumoniae. Particulars: antibiotic-resistant organisms.

`CCn1cc(C(=O)O)c(=O)c2cc(F)c(N3CCNCC3)cc21` [Norfloxacin]: the MIC90 in assay [1] was 0.25 µg/mL (≈ 0.783 µM); in assay [2], 4 µg/mL (≈ 12.5 µM); in assay [3], not above 0.06 µg/mL; in assay [4], more than 128 µg/mL; in assay [5] it was 128 µg/mL (≈ 401 µM); in assay [6], 8 µg/mL (≈ 25.1 µM). Moreover, the MIC90 in assay [7] is 16 µg/mL (≈ 50.1 µM); in [8] it was 4 µg/mL (≈ 12.5 µM); in [9], more than 128 µg/mL; in [10] it was 128 µg/mL (≈ 401 µM); in assay [11], 128 µg/mL (≈ 401 µM); in assay [12], 8 µg/mL (≈ 25.1 µM).
